Measurements reported in BigSolDB 2.1.

O=[N+]([O-])c1cc[nH]n1
solubility (mole fraction)
Conditions | 283.15 K | 288.15 K | 293.15 K | 298.15 K | 303.15 K | 308.15 K | 313.15 K | 318.15 K | 323.15 K
in THF | 0.00254 | 0.00305 | 0.00386 | 0.00456 | 0.00553 | 0.00654 | 0.00761 | 0.00903 | 0.0106
in acetone | 0.0129 | 0.0152 | 0.0177 | 0.0202 | 0.0228 | 0.0261 | 0.0301 | 0.0339 | 0.0376
in acetonitrile | 0.0148 | 0.017 | 0.0195 | 0.0223 | 0.0254 | 0.0289 | 0.0327 | 0.037 | 0.0418
in benzene | 0.00052 | 0.00066 | 0.00086 | 0.00109 | 0.00139 | 0.00171 | 0.00215 | 0.00265 | 0.00323
in ethanol | 0.0254 | 0.0292 | 0.0328 | 0.0364 | 0.041 | 0.0449 | 0.0548 | 0.0599 | 0.0646
in ethyl acetate | 0.00586 | 0.00728 | 0.00905 | 0.0107 | 0.0133 | 0.0163 | 0.0196 | 0.0236 | 0.0282
in isopropyl acetate | 0.00234 | 0.00292 | 0.00364 | 0.00456 | 0.00566 | 0.00695 | 0.00849 | 0.0102 | 0.0125
in methanol | 0.00822 | 0.0131 | 0.017 | 0.0208 | 0.0256 | 0.0338 | 0.0455 | 0.0605 | 0.0854
in methyl acetate | 0.0083 | 0.0102 | 0.0125 | 0.0149 | 0.0178 | 0.0209 | 0.0244 | 0.0282 | 0.032
in n-butyl acetate | 0.00323 | 0.00423 | 0.00542 | 0.00687 | 0.00865 | 0.0107 | 0.0132 | 0.0159 | 0.0191
in n-propanol | 0.0224 | 0.0255 | 0.0295 | 0.0336 | 0.0384 | 0.0442 | 0.0481 | 0.0551 | 0.0627
in n-propyl acetate | 0.00676 | 0.00793 | 0.0092 | 0.0106 | 0.0123 | 0.0142 | 0.0165 | 0.0193 | 0.0225
in toluene | 0.00148 | 0.00187 | 0.00232 | 0.00286 | 0.00354 | 0.00437 | 0.00514 | 0.00623 | 0.00729
in water | 0.00032 | 0.0004 | 0.00051 | 0.00065 | 0.00083 | 0.00105 | 0.00133 | 0.0017 | 0.00216
